According to paper PMC5218480 (PLoS ONE, 2017):

System: MV-4-11 cells
Assay: Gene expression microarray analysis (Affymetrix PrimeView) and GSEA
Type: cell-based, human
Parameters: RFU PODN (11730768_x_at) / Fold change /veh PODN (11730768_x_at) / RFU LINC00158 (11744669_a_at) / Fold change /veh LINC00158 (11744669_a_at) / RFU DUSP10 (11751237_a_at) / Fold change /veh DUSP10 (11751237_a_at) / RFU ID3 (11757404_x_at) / Fold change /veh ID3 (11757404_x_at) / RFU PLEKHG5 (11737974_s_at) / Fold change /veh PLEKHG5 (11737974_s_at) / RFU LRRC4B (11730491_at) / Fold change /veh LRRC4B (11730491_at) / RFU GIMAP4 (11747438_a_at) / Fold change /veh GIMAP4 (11747438_a_at) / RFU KRT8 (11758183_x_at) / Fold change /veh KRT8 (11758183_x_at) / RFU CNN1 (11734310_a_at) / Fold change /veh CNN1 (11734310_a_at) / RFU VPS37D (11726825_at) / Fold change /veh VPS37D (11726825_at) / RFU C10orf10 (11716522_x_at) / Fold change /veh C10orf10 (11716522_x_at) / RFU KIR2DL2 /// KIR2DL4 /// KIR2DL5A /// KIR2DL5B /// KIR2DS1 /// KIR2DS2 /// KIR2DS3 /// KIR2DS4 /// KIR3DL3 /// KIR3DL3 /// KIR3DS1 (11738374_at) / Fold change /veh KIR2DL2 /// KIR2DL4 /// KIR2DL5A /// KIR2DL5B /// KIR2DS1 /// KIR2DS2 /// KIR2DS3 /// KIR2DS4 /// KIR3DL3 /// KIR3DL3 /// KIR3DS1 (11738374_at) / RFU C1QL1 (11718748_at) / Fold change /veh C1QL1 (11718748_at) / RFU TMPRSS4 (11747572_a_at) / Fold change /veh TMPRSS4 (11747572_a_at) / RFU HAMP (11756126_x_at) / Fold change /veh HAMP (11756126_x_at) / RFU RNFT2 (11725882_a_at) / Fold change /veh RNFT2 (11725882_a_at) / RFU NR4A2 (11747474_a_at) / Fold change /veh NR4A2 (11747474_a_at) / RFU ABCC12 (11746883_a_at) / Fold change /veh ABCC12 (11746883_a_at) / RFU TMEM136 (11760407_x_at) / Fold change /veh TMEM136 (11760407_x_at) / RFU CLDN22 /// WWC2 (11732394_at) / Fold change /veh CLDN22 /// WWC2 (11732394_at) / RFU HLA-DPB1 (11760878_x_at) / Fold change /veh HLA-DPB1 (11760878_x_at) / RFU SPINT1 (11716480_a_at) / Fold change /veh SPINT1 (11716480_a_at) / RFU GAP43 (11754022_s_at) / Fold change /veh GAP43 (11754022_s_at) / RFU A4GNT (11735810_at) / Fold change /veh A4GNT (11735810_at) / RFU PRB3 (11715151_x_at) / Fold change /veh PRB3 (11715151_x_at) / RFU TUBB4B (11761932_at) / Fold change /veh TUBB4B (11761932_at) / RFU CAPN14 (11732068_a_at) / Fold change /veh CAPN14 (11732068_a_at) / RFU TMCC2 (11721928_a_at) / Fold change /veh TMCC2 (11721928_a_at) / RFU IRGQ (11745062_a_at) / Fold change /veh IRGQ (11745062_a_at) / RFU FAM174B (11720279_a_at) / Fold change /veh FAM174B (11720279_a_at) / RFU TMPRSS4 (11748680_a_at) / Fold change /veh TMPRSS4 (11748680_a_at) / RFU FAM212B (11763350_a_at) / Fold change /veh FAM212B (11763350_a_at) / RFU PLEKHG5 (11743358_a_at) / Fold change /veh PLEKHG5 (11743358_a_at) / RFU ZSCAN30 (11745921_a_at) / Fold change /veh ZSCAN30 (11745921_a_at) / RFU CMKLR1 (11741424_a_at) / Fold change /veh CMKLR1 (11741424_a_at) / RFU LOC101060620 /// MAPK8IP1 (11723275_at) / Fold change /veh LOC101060620 /// MAPK8IP1 (11723275_at) / RFU SPTSSB (11747773_x_at) / Fold change /veh SPTSSB (11747773_x_at) / RFU PRSS12 (11739890_at) / Fold change /veh PRSS12 (11739890_at) / RFU BIN1 (11741810_x_at) / Fold change /veh BIN1 (11741810_x_at) / RFU WNT11 (11732464_a_at) / Fold change /veh WNT11 (11732464_a_at) / RFU C10orf10 (11716521_a_at) / Fold change /veh C10orf10 (11716521_a_at) / RFU C5orf56 (11738089_at) / Fold change /veh C5orf56 (11738089_at) / RFU CYB561 (11721691_x_at) / Fold change /veh CYB561 (11721691_x_at) / RFU ANKRD19P (11752326_a_at) / Fold change /veh ANKRD19P (11752326_a_at) / RFU OR2T12 /// OR2T33 /// OR2T8 (11738714_s_at) / Fold change /veh OR2T12 /// OR2T33 /// OR2T8 (11738714_s_at) / RFU VCAN (11748164_a_at) / Fold change /veh VCAN (11748164_a_at) / RFU JSRP1 (11732532_at) / Fold change /veh JSRP1 (11732532_at) / RFU KRTAP10-11 (11738290_x_at) / Fold change /veh KRTAP10-11 (11738290_x_at) / RFU MYO3A (11730013_a_at) / Fold change /veh MYO3A (11730013_a_at) / RFU EBF3 (11725865_a_at) / Fold change /veh EBF3 (11725865_a_at) / RFU CAMK2N1 (11719241_x_at) / Fold change /veh CAMK2N1 (11719241_x_at) / RFU C5orf56 (11738088_a_at) / Fold change /veh C5orf56 (11738088_a_at) / RFU OLFML3 (11715873_a_at) / Fold change /veh OLFML3 (11715873_a_at) / RFU LOC100653217 /// NTM (11731650_a_at) / Fold change /veh LOC100653217 /// NTM (11731650_a_at) / RFU MAPK11 (11762145_a_at) / Fold change /veh MAPK11 (11762145_a_at) / RFU FIZ1 (11724087_x_at) / Fold change /veh FIZ1 (11724087_x_at) / RFU OASL (11726364_x_at) / Fold change /veh OASL (11726364_x_at) / RFU SOX15 (11748057_x_at) / Fold change /veh SOX15 (11748057_x_at) / RFU CD79A (11719716_a_at) / Fold change /veh CD79A (11719716_a_at) / RFU HIST1H1D (11736915_at) / Fold change /veh HIST1H1D (11736915_at) / RFU CASKIN2 (11723855_a_at) / Fold change /veh CASKIN2 (11723855_a_at) / RFU LOC730098 (11760151_x_at) / Fold change /veh LOC730098 (11760151_x_at) / RFU OR4N2 (11742367_at) / Fold change /veh OR4N2 (11742367_at) / RFU PRRT2 (11749266_a_at) / Fold change /veh PRRT2 (11749266_a_at) / RFU SNX32 (11753110_a_at) / Fold change /veh SNX32 (11753110_a_at) / RFU CDHR5 (11726645_a_at) / Fold change /veh CDHR5 (11726645_a_at) / RFU RCAN1 (11760418_a_at) / Fold change /veh RCAN1 (11760418_a_at) / RFU FAM167A (11723789_a_at) / Fold change /veh FAM167A (11723789_a_at) / RFU FAM26E (11764081_at) / Fold change /veh FAM26E (11764081_at) / RFU ISYNA1 (11749810_s_at) / Fold change /veh ISYNA1 (11749810_s_at) / RFU ACY1 (11761880_at) / Fold change /veh ACY1 (11761880_at) / RFU 11764098_at / Fold change /veh 11764098_at / RFU SAMD14 (11745864_x_at) / Fold change /veh SAMD14 (11745864_x_at) / RFU NPB (11741838_a_at) / Fold change /veh NPB (11741838_a_at) / RFU TMPRSS6 (11731388_a_at) / Fold change /veh TMPRSS6 (11731388_a_at) / RFU KRTAP10-2 (11738614_at) / Fold change /veh KRTAP10-2 (11738614_at) / RFU ARHGAP8 /// PRR5-ARHGAP8 (11727945_x_at) / Fold change /veh ARHGAP8 /// PRR5-ARHGAP8 (11727945_x_at) / RFU KRTAP5-7 /// NADSYN1 (11734609_at) / Fold change /veh KRTAP5-7 /// NADSYN1 (11734609_at) / RFU RASL12 (11751679_a_at) / Fold change /veh RASL12 (11751679_a_at) / RFU CDKN2B (11736163_a_at) / Fold change /veh CDKN2B (11736163_a_at) / RFU PRF1 (11729649_at) / Fold change /veh PRF1 (11729649_at) / RFU, ZNF638 /// ZNF638-IT1 / Fold change vs veh, ZNF638 /// ZNF638-IT1 / RFU, PANK3 / Fold change vs veh, PANK3 / RFU, SH3YL1 / Fold change vs veh, SH3YL1 / RFU, ZEB2 / Fold change vs veh, ZEB2 / RFU, NRIP1 / Fold change vs veh, NRIP1 / RFU, PTTG1IP / Fold change vs veh, PTTG1IP / RFU, CAPN2 / Fold change vs veh, CAPN2 / RFU, MED14 / Fold change vs veh, MED14 / RFU, SNORA58 / Fold change vs veh, SNORA58 / RFU, C1orf63 / Fold change vs veh, C1orf63 / RFU, LRRFIP1 / Fold change vs veh, LRRFIP1 / RFU, NDUFAF7 / Fold change vs veh, NDUFAF7 / RFU, SLC12A2 / Fold change vs veh, SLC12A2 / RFU, IBTK / Fold change vs veh, IBTK / RFU, ESF1 / Fold change vs veh, ESF1 / Fold change vs veh, TMEM50B / RFU, TAOK1 / Fold change vs veh, TAOK1 / RFU, ACBD3 / Fold change vs veh, ACBD3 / RFU, TMA16 / Fold change vs veh, TMA16 / RFU, RWDD3 / Fold change vs veh, RWDD3 / RFU, BCAT1 / Fold change vs veh, BCAT1 / RFU, EDEM3 / Fold change vs veh, EDEM3 / RFU, TMEM33 / Fold change vs veh, TMEM33 / RFU, WDR75 / Fold change vs veh, WDR75 / RFU, AHCTF1 / Fold change vs veh, AHCTF1 / RFU, TFRC / Fold change vs veh, TFRC / RFU, ZDHHC17 / Fold change vs veh, ZDHHC17 / RFU, NOM1 / Fold change vs veh, NOM1 / RFU, ARL8B / Fold change vs veh, ARL8B / RFU, ZBTB11 / Fold change vs veh, ZBTB11 / RFU, TAMM41 / Fold change vs veh, TAMM41 / RFU, KIAA1704 /// LOC100996395 / Fold change vs veh, KIAA1704 /// LOC100996395 / RFU, ING1 / Fold change vs veh, ING1 / RFU, TRMT61B / Fold change vs veh, TRMT61B / RFU, FUBP3 / Fold change vs veh, FUBP3 / RFU, TP53 / Fold change vs veh, TP53 / RFU, TNKS2 / Fold change vs veh, TNKS2 / RFU, ZFP14 / Fold change vs veh, ZFP14 / RFU, ACTR2 / Fold change vs veh, ACTR2 / RFU, PPP3R1 / Fold change vs veh, PPP3R1 / RFU, PIK3R1 / Fold change vs veh, PIK3R1 / RFU, HNRNPA1 / Fold change vs veh, HNRNPA1 / RFU, RNF170 / Fold change vs veh, RNF170 / RFU, ZNF28 / Fold change vs veh, ZNF28 / RFU, RNGTT / Fold change vs veh, RNGTT / RFU, OGT / Fold change vs veh, OGT / RFU, BRD1 / Fold change vs veh, BRD1 / RFU, MARS / Fold change vs veh, MARS / RFU, ZNF655 / Fold change vs veh, ZNF655 / RFU, FAHD1 / Fold change vs veh, FAHD1 / RFU, BDP1 / Fold change vs veh, BDP1 / RFU, LRRCC1 / Fold change vs veh, LRRCC1 / RFU, ARID1A / Fold change vs veh, ARID1A / RFU, ZNF146 / Fold change vs veh, ZNF146 / RFU, ZNF330 / Fold change vs veh, ZNF330 / RFU, GPN3 / Fold change vs veh, GPN3 / RFU, C9orf123 / Fold change vs veh, C9orf123 / RFU, N4BP2L2 / Fold change vs veh, N4BP2L2 / RFU, ARFIP1 / Fold change vs veh, ARFIP1 / RFU, FAM179B / Fold change vs veh, FAM179B / RFU, BCL10 / Fold change vs veh, BCL10 / RFU, UHRF1BP1L / Fold change vs veh, UHRF1BP1L / RFU, BET1 / Fold change vs veh, BET1 / RFU, CNOT2 / Fold change vs veh, CNOT2 / RFU, ZNF268 / Fold change vs veh, ZNF268 / Fold change vs veh, ZNF507 / RFU, DGCR2 / Fold change vs veh, DGCR2 / RFU, WDSUB1 / Fold change vs veh, WDSUB1 / Fold change vs veh, HSP90B1 /// MIR3652 / RFU, ADSS / Fold change vs veh, ADSS / RFU, GK / Fold change vs veh, GK / RFU, ZNF148 / Fold change vs veh, ZNF148 / RFU, TAF9 / Fold change vs veh, TAF9 / RFU, SLC1A5 / Fold change vs veh, SLC1A5 / RFU, SLMO2 / Fold change vs veh, SLMO2 / RFU, ABCC4 / Fold change vs veh, ABCC4 / RFU, LOC101060439 /// RAP1B / Fold change vs veh, LOC101060439 /// RAP1B / RFU, RFX7 / Fold change vs veh, RFX7 / RFU, GTPBP10 / Fold change vs veh, GTPBP10 / RFU, CNEP1R1 / Fold change vs veh, CNEP1R1 / RFU, BIVM-ERCC5 /// ERCC5 / Fold change vs veh, BIVM-ERCC5 /// ERCC5 / RFU, ILF3 / Fold change vs veh, ILF3 / RFU 11762660_at / Fold change /veh 11762660_at / RFU VCAN (11757783_s_at) / Fold change /veh VCAN (11757783_s_at) / RFU DDX43 (11728927_at) / Fold change /veh DDX43 (11728927_at) / RFU KRT8 (11758188_x_at) / Fold change /veh KRT8 (11758188_x_at) / RFU NKD1 (11759106_at) / Fold change /veh NKD1 (11759106_at) / RFU SRD5A1 (11742802_a_at) / Fold change /veh SRD5A1 (11742802_a_at) / RFU TPSAB1 /// TPSB2 (11721975_s_at) / Fold change /veh TPSAB1 /// TPSB2 (11721975_s_at) / RFU GSTM3 (11746129_a_at) / Fold change /veh GSTM3 (11746129_a_at) / RFU IL23R (11737362_x_at) / Fold change /veh IL23R (11737362_x_at) / RFU TMEM51 (11727254_a_at) / Fold change /veh TMEM51 (11727254_a_at) / RFU PIWIL2 (11732686_x_at) / Fold change /veh PIWIL2 (11732686_x_at) / RFU ORM1 (11744905_x_at) / Fold change /veh ORM1 (11744905_x_at) / RFU CCDC152 (11743942_at) / Fold change /veh CCDC152 (11743942_at) / RFU ECM1 (11717891_a_at) / Fold change /veh ECM1 (11717891_a_at) / RFU IL23R (11748794_a_at) / Fold change /veh IL23R (11748794_a_at) / RFU TNFAIP8L3 (11732012_x_at) / Fold change /veh TNFAIP8L3 (11732012_x_at) / RFU MBOAT4 (11741988_at) / Fold change /veh MBOAT4 (11741988_at) / RFU 11764193_at / Fold change /veh 11764193_at / RFU TMEM53 (11763286_at) / Fold change /veh TMEM53 (11763286_at) / RFU MAGEB2 (11727129_at) / Fold change /veh MAGEB2 (11727129_at) / RFU TMEM200A (11744735_a_at) / Fold change /veh TMEM200A (11744735_a_at) / RFU CCDC152 (11751479_a_at) / Fold change /veh CCDC152 (11751479_a_at) / RFU FAM211A (11726209_a_at) / Fold change /veh FAM211A (11726209_a_at) / RFU RGS16 (11746705_a_at) / Fold change /veh RGS16 (11746705_a_at) / RFU VCAN (11755009_s_at) / Fold change /veh VCAN (11755009_s_at) / RFU RHOB (11743442_s_at) / Fold change /veh RHOB (11743442_s_at) / RFU RGS16 (11720943_a_at) / Fold change /veh RGS16 (11720943_a_at) / RFU RGS16 (11720944_at) / Fold change /veh RGS16 (11720944_at) / RFU, VPS4B / Fold change vs veh, VPS4B / RFU, CREB1 / Fold change vs veh, CREB1 / RFU, DNAJC13 / Fold change vs veh, DNAJC13 / RFU, GNAQ / Fold change vs veh, GNAQ / RFU, CDK5R1 / Fold change vs veh, CDK5R1 / RFU, ZRANB3 / Fold change vs veh, ZRANB3 / RFU, CUL4A / Fold change vs veh, CUL4A / RFU, CCNY / Fold change vs veh, CCNY / RFU, UFL1 / Fold change vs veh, UFL1 / RFU, COG3 / Fold change vs veh, COG3 / RFU, DIAPH2 / Fold change vs veh, DIAPH2 / RFU, SKA2 / Fold change vs veh, SKA2 / RFU, AFF3 / Fold change vs veh, AFF3 / RFU, LMF1 / Fold change vs veh, LMF1 / RFU, IPO11 / Fold change vs veh, IPO11 / RFU, DFFB / Fold change vs veh, DFFB / RFU, FOXP1 / Fold change vs veh, FOXP1 / RFU, CARD8 / Fold change vs veh, CARD8 / RFU, STRN3 / Fold change vs veh, STRN3 / RFU, ADK / Fold change vs veh, ADK / RFU, RASSF2 / Fold change vs veh, RASSF2 / RFU, WIPF1 / Fold change vs veh, WIPF1 / RFU, LARP1B / Fold change vs veh, LARP1B / RFU, RASA1 / Fold change vs veh, RASA1 / RFU, RB1 / Fold change vs veh, RB1 / RFU, PPFIA1 / Fold change vs veh, PPFIA1 / RFU, MAT2A / Fold change vs veh, MAT2A / RFU, CCT5 / Fold change vs veh, CCT5 / RFU, WDR92 / Fold change vs veh, WDR92 / RFU, CUX1 / Fold change vs veh, CUX1 / RFU, TTC7A / Fold change vs veh, TTC7A / RFU, TMEM135 / Fold change vs veh, TMEM135 / RFU, DEPTOR / Fold change vs veh, DEPTOR / RFU, CPM / Fold change vs veh, CPM / RFU, DNAJB6 / Fold change vs veh, DNAJB6 / RFU, CACNA2D3 / Fold change vs veh, CACNA2D3 / RFU, DTX4 / Fold change vs veh, DTX4 / RFU, TFCP2 / Fold change vs veh, TFCP2 / RFU, GMCL1 /// GMCL1P1 / Fold change vs veh, GMCL1 /// GMCL1P1 / RFU, AEBP2 / Fold change vs veh, AEBP2 / RFU, SNHG1 /// SNORD22 /// SNORD25 /// SNORD26 /// SNORD27 /// SNORD28 /// SNORD29 /// SNORD31 / Fold change vs veh, SNHG1 /// SNORD22 /// SNORD25 /// SNORD26 /// SNORD27 /// SNORD28 /// SNORD29 /// SNORD31 / Fold change (Aza/veh), C12orf56 (ProbeSet 11735607_a_at) / Fold change (ACY-1035/veh), C12orf56 (ProbeSet 11735607_a_at) / Fold change (Aza/veh), FGFR1OP (ProbeSet 11751329_s_at) / Fold change (ACY-1035/veh), FGFR1OP (ProbeSet 11751329_s_at) / Fold change (Aza/veh), VPS36 (ProbeSet 11739960_a_at) / Fold change (ACY-1035/veh), VPS36 (ProbeSet 11739960_a_at) / RFU SYPL1 (11715823_x_at) / Fold change /veh SYPL1 (11715823_x_at) / RFU IGFBP7 (11715501_s_at) / Fold change /veh IGFBP7 (11715501_s_at) / RFU REEP3 (11722064_at) / Fold change /veh REEP3 (11722064_at) / RFU IGLL1 (11728026_x_at) / Fold change /veh IGLL1 (11728026_x_at): dose or concentration left out as unconfirmed
Settings: ProbeSet 11760938_a_at; LIST D

Structure (SMILES): Nc1ccc(-c2cccs2)cc1NC(=O)c1ccc2c(c1)cc(C1CC1)n2CCN1CCOCC1 [ACY-1035]
- RFU, MAT2A: 163.17 RFU
